Laboratory results published in article PMC10882719 (Frontiers in Neuroscience, 2024).
Where two headings read alike, the source gives them in different places.

Experiments:
Assay type in all cases: cell-based
[1] = target: T1, 168 GPCRs (Homo sapiens, UniProt P51679)
T1 construct: host or cells: PathHunter cell lines
T1 sequence (P51679 1-360): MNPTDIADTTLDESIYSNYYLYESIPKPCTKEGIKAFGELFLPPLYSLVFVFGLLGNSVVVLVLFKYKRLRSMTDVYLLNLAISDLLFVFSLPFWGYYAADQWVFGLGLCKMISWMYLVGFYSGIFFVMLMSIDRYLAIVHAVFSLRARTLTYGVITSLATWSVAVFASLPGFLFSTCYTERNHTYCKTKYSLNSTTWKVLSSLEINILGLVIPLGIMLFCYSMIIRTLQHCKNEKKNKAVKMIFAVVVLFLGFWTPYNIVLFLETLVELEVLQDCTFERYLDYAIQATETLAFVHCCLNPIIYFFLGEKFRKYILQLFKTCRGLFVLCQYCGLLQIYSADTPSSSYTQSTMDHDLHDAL

[2] = target: T2, 168 GPCRs (Homo sapiens, UniProt O95136)
T2 construct: host or cells: PathHunter cell lines
T2 sequence (O95136 whole entry): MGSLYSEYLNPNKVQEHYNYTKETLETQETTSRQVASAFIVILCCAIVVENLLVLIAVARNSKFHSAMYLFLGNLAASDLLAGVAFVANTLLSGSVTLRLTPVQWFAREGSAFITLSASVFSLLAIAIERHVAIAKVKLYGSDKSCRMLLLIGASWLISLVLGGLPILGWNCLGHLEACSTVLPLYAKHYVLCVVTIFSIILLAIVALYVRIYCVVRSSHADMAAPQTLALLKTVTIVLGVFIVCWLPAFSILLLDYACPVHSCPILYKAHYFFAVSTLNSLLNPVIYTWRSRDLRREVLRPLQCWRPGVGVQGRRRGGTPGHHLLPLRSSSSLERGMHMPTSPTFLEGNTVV

[3] = target: T3, 168 GPCRs (Homo sapiens, UniProt P30989); conditions: NTSR1
T3 construct: host or cells: PathHunter cell lines
T3 sequence (P30989 whole entry): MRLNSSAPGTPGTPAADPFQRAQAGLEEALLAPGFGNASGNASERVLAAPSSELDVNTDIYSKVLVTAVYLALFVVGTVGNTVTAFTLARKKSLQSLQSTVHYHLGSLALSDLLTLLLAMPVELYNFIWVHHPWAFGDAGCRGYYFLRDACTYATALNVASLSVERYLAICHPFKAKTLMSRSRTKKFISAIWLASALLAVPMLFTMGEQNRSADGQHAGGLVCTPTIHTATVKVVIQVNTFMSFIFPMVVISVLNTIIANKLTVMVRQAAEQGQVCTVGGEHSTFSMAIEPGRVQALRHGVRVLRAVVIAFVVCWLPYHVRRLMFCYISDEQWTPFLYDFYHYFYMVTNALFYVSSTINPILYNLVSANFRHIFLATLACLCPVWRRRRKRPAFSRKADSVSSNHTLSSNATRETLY

[4] = target: T4, 168 GPCRs (Homo sapiens, UniProt P32245); conditions: MC4R
T4 construct: host or cells: PathHunter cell lines
T4 sequence (P32245 whole entry): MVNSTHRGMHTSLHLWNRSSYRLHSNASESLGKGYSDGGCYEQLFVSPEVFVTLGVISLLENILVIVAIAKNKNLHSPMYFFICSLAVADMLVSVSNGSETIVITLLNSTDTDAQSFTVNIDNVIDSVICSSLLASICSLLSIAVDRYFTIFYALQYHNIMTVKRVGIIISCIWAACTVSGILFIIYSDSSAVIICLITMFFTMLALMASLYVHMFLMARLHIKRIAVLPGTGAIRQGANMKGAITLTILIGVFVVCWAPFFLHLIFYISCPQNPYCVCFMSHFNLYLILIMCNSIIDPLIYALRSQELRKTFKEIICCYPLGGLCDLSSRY

[5] = target: T5, 168 GPCRs (Homo sapiens, UniProt P29371); conditions: TACR3
T5 construct: host or cells: PathHunter cell lines
T5 sequence (P29371 1-465): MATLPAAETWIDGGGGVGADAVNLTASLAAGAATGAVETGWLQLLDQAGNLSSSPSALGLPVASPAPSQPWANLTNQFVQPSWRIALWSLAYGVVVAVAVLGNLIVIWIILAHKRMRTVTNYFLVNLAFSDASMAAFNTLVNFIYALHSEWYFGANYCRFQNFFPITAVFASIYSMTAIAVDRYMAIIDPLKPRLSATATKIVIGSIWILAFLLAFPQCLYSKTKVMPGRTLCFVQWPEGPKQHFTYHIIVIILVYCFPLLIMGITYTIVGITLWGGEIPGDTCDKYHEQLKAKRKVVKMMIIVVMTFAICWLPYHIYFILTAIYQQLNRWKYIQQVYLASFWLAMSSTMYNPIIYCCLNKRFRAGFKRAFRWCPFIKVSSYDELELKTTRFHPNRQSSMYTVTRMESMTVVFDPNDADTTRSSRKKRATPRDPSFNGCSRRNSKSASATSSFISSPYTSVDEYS

[6] = target: T6, 168 GPCRs (Homo sapiens, UniProt P25021)
T6 construct: host or cells: PathHunter cell lines
T6 sequence (P25021 whole entry): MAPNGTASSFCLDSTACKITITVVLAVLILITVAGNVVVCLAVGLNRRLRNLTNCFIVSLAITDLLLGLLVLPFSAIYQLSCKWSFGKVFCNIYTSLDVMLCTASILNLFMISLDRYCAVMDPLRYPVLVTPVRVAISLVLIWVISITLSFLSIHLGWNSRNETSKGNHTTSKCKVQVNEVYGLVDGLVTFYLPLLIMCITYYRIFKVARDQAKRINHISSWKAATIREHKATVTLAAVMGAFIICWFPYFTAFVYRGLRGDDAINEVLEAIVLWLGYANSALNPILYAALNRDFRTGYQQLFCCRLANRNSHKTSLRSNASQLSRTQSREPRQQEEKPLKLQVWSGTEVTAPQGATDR

[7] = target: T7, 168 GPCRs (Homo sapiens, UniProt P30556)
T7 construct: host or cells: PathHunter cell lines
T7 sequence (P30556 1-359): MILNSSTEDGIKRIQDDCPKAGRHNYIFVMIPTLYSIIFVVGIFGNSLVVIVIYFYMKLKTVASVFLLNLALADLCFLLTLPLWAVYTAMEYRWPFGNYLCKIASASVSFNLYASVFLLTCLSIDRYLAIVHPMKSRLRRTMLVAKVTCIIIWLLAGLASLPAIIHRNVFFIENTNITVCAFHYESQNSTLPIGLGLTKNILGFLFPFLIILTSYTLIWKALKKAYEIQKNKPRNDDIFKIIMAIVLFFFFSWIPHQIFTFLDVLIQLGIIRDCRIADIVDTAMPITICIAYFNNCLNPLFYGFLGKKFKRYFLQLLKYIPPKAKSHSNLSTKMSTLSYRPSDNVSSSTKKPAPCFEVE

[8] = target: T8, 168 GPCRs (Homo sapiens, UniProt P07550)
T8 construct: host or cells: PathHunter cell lines
T8 sequence (P07550 whole entry): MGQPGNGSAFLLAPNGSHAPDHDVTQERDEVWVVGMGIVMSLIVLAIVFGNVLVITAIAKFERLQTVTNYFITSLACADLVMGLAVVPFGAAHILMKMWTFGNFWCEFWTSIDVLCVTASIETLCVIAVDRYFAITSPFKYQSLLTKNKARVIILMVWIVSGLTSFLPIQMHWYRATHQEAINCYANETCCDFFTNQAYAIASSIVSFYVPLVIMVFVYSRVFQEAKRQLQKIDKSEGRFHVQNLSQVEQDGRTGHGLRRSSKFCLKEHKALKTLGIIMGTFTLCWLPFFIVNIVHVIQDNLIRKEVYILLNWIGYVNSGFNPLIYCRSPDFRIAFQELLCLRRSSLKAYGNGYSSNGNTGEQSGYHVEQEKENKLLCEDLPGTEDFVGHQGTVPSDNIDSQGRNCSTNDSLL

Question: What does the source list for CNC(C)Cc1ccc2c(c1)OCO2 (stereo not shown) [MDMA, 3,4-Methylenedioxy methamphetamine, reference compound]?
Answer: % Agonist Activity ([1]; CCR4, 1 uM): 0.1%; % Antagonist Activity ([1]; CCR4, 1 uM): 7.7%; % Agonist Activity ([1]; CCR4, 10 uM): 0.1%; % Antagonist Activity ([1]; CCR4, 10 uM): 13%; % Agonist Activity ([2]; EDG5, 1 uM): -1.1%; % Antagonist Activity ([2]; EDG5, 1 uM): -0.5%; % Agonist Activity ([2]; EDG5, 10 uM): -1.5%; % Antagonist Activity ([2]; EDG5, 10 uM): 0.6%; % Agonist Activity ([3]; Conc 1 uM): -0.8%; % Antagonist Activity ([3]; Conc 1 uM): 8.7%; % Agonist Activity ([3]; Conc 10 uM): 1.2%; % Antagonist Activity ([3]; Conc 10 uM): 0.5%; % Agonist Activity ([4]; 1 uM): 2.3%; % Antagonist Activity ([4]; 1 uM): -14.5%; % Agonist Activity ([4]; 10 uM): 0.7%; % Antagonist Activity ([4]; 10 uM): -11.7%; % Agonist Activity ([5]; Conc 1 uM): 0.1%; % Antagonist Activity ([5]; Conc 1 uM): 14.6%; % Agonist Activity ([5]; Conc 10 uM): 1%; % Antagonist Activity ([5]; Conc 10 uM): 19.1%; % Agonist Activity ([6]; HRH2, 1 uM): 3.3%; % Antagonist Activity ([6]; HRH2, 1 uM): 8.4%; % Agonist Activity ([6]; HRH2, 10 uM): -3.7%; % Antagonist Activity ([6]; HRH2, 10 uM): 15.3%; % Agonist Activity ([7]; AGTR1, 1 uM): 3.5%; % Antagonist Activity ([7]; AGTR1, 1 uM): -17.7%; % Agonist Activity ([7]; AGTR1, 10 uM): 3.2%; % Antagonist Activity ([7]; AGTR1, 10 uM): -14.5%; % Agonist Activity ([8]; ADRB2, 1 uM): 2%; % Antagonist Activity ([8]; ADRB2, 1 uM): 31.9%; % Agonist Activity ([8]; ADRB2, 10 uM): 1.5%; % Antagonist Activity ([8]; ADRB2, 10 uM): 45.7%

Question: Which “% Agonist Activity” value ([1]; CCR4, 1 uM) does the source give for CNC(C)C(=O)c1ccc2c(c1)OCO2 (stereo not shown) [methylone] here?
Answer: -0.5%

Question: What about the “% Antagonist Activity” value ([1]; CCR4, 1 uM) of the same compound?
Answer: 10%

Question: And the “% Agonist Activity” value ([1]; CCR4, 10 uM)?
Answer: -1.4%

Question: And the “% Antagonist Activity” value ([1]; CCR4, 10 uM)?
Answer: 9.5%

Question: And the “% Agonist Activity” value ([2]; EDG5, 1 uM)?
Answer: -4.7%

Question: And the “% Antagonist Activity” value ([2]; EDG5, 1 uM)?
Answer: -3.4%

Question: And the “% Agonist Activity” value ([2]; EDG5, 10 uM)?
Answer: -3.7%

Question: What about the “% Antagonist Activity” value ([2]; EDG5, 10 uM) of the same compound?
Answer: -6.3%

Question: And the “% Agonist Activity” value ([3]; Conc 1 uM)?
Answer: -4.7%

Question: And the “% Antagonist Activity” value ([3]; Conc 1 uM)?
Answer: -0.7%

Question: What about the “% Agonist Activity” value ([3]; Conc 10 uM) of the same compound?
Answer: -3.5%

Question: What about the “% Antagonist Activity” value ([3]; Conc 10 uM) of the same compound?
Answer: -1.7%

Question: What about the “% Agonist Activity” value ([4]; 1 uM) of the same compound?
Answer: -1.4%

Question: What about the “% Antagonist Activity” value ([4]; 1 uM) of the same compound?
Answer: -5.2%

Question: And the “% Agonist Activity” value ([4]; 10 uM)?
Answer: -1.1%

Question: What about the “% Antagonist Activity” value ([4]; 10 uM) of the same compound?
Answer: -14%

Question: And the “% Agonist Activity” value ([5]; Conc 1 uM)?
Answer: 0.8%

Question: What about the “% Antagonist Activity” value ([5]; Conc 1 uM) of the same compound?
Answer: -3.9%

Question: And the “% Agonist Activity” value ([5]; Conc 10 uM)?
Answer: 1.1%

Question: And the “% Antagonist Activity” value ([5]; Conc 10 uM)?
Answer: -14.3%

Question: What about the “% Agonist Activity” value ([6]; HRH2, 1 uM) of the same compound?
Answer: -2.5%

Question: And the “% Antagonist Activity” value ([6]; HRH2, 1 uM)?
Answer: 7.1%

Question: And the “% Agonist Activity” value ([6]; HRH2, 10 uM)?
Answer: -2.8%

Question: What about the “% Antagonist Activity” value ([6]; HRH2, 10 uM) of the same compound?
Answer: 8.1%

Question: What about the “% Agonist Activity” value ([7]; AGTR1, 1 uM) of the same compound?
Answer: -2.8%

Question: And the “% Antagonist Activity” value ([7]; AGTR1, 1 uM)?
Answer: 3.3%

Question: What about the “% Agonist Activity” value ([7]; AGTR1, 10 uM) of the same compound?
Answer: -1%

Question: And the “% Antagonist Activity” value ([7]; AGTR1, 10 uM)?
Answer: -1.4%

Question: And the “% Agonist Activity” value ([8]; ADRB2, 1 uM)?
Answer: 0%

Question: And the “% Antagonist Activity” value ([8]; ADRB2, 1 uM)?
Answer: 18.1%

Question: And the “% Agonist Activity” value ([8]; ADRB2, 10 uM)?
Answer: -0.2%

Question: What about the “% Antagonist Activity” value ([8]; ADRB2, 10 uM) of the same compound?
Answer: 20.4%
